# Results from PubChem BioAssay AID602280 (Broad Institute, 2012).
# Activity calls are given as the source filed them.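 How the source made its calls: active means compound whose fitted growth curve, scaled so untreated is 0 and control 100, reaches 40 within the tested doses; inconclusive means flat curve between 30 and 70 percent, or unreliable fit; inactive means the rest, including drops in growth.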
# Test system: S. cerevisiae GAL-BEM3 growth rescue, OD600, 48 h
# Assay: yeast growth restoration under BEM3 overexpression – S. cerevisiae, dry powder, plate reader, dose response (AID 602280)
row,Compound,AC40
1,Fc1cc(NCc2ccccc2)nc(NCc2ccccc2)n1,8.75 µM
2,Cc1ccccc1CSc1nsc(N)n1,> 26 µM (inactive)
3,O=c1c2ccccc2[nH]c(=S)n1CCC1=CCCCC1,22 µM
4,CC(C)c1ccc(C2NC(=O)c3ccccc3O2)cc1 (centres undefined),2.3 µM
